Assay results reported in patent US10669272B2, “Substituted naphthyridinone compounds useful as T cell activators” (BRISTOL-MYERS SQUIBB COMPANY, priority 2018, dated 2020).
Read-outs that look alike come from different tables or passages of the source.

Experiments:
[1] = tested on: OT-1 CD8+ T cells with SIINFEKL-loaded MC38 tumor cells; assay: Murine cytotoxic T lymphocyte assay (IFN-γ, OT-1 CTL with MC38 tumor cells); assay type: cell-based, mouse; conditions: read-out: msCTL INFg IC50
Procedure, shortened: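 OT-1 CD8+ T cells, expanded 5 days with OVA peptide (1 μg/mL) and mIL2, pretreated 1 h with DGK inhibitors, then co-cultured overnight at 37° C at 1:10 with MC38 cells pulsed 3 h with 1 μg/mL SIINFEKL. IFN-γ in 24 h supernatant by AlphaLISA.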

Human venous whole blood = assay: Human whole blood IFN-γ assay; assay type: cell-based; conditions: human whole blood, normalized to 3 μM reference compound with anti-CD3 plus anti-CD28 as 100% activation, read-out: INFg Whole Blood Normalized Agonist EC50;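 further: blood from healthy donors exposed to compound for 1 h before stimulation with anti-CD3 and anti-CD28 at 1 µg/mL each, IFN-γ quantified in supernatant by AlphaLISA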
human DGKα = biological target: T1, human DGKα (Homo sapiens, UniProt P23743); assay: DGKα LIPGLO assay (extruded liposome substrate), in vitro DGK inhibition; assay type: biochemical; conditions: liposome (LIPGLO) assay; read-out: DGKa LIPGLO IC50
T1 construct: TVMV protease cleavage site (C); Hexa-His (C); made in house; host or cells: Sf9 insect cells (baculovirus, Bac-to-Bac)
T1 sequence (P23743 with tags, fused parts or gaps): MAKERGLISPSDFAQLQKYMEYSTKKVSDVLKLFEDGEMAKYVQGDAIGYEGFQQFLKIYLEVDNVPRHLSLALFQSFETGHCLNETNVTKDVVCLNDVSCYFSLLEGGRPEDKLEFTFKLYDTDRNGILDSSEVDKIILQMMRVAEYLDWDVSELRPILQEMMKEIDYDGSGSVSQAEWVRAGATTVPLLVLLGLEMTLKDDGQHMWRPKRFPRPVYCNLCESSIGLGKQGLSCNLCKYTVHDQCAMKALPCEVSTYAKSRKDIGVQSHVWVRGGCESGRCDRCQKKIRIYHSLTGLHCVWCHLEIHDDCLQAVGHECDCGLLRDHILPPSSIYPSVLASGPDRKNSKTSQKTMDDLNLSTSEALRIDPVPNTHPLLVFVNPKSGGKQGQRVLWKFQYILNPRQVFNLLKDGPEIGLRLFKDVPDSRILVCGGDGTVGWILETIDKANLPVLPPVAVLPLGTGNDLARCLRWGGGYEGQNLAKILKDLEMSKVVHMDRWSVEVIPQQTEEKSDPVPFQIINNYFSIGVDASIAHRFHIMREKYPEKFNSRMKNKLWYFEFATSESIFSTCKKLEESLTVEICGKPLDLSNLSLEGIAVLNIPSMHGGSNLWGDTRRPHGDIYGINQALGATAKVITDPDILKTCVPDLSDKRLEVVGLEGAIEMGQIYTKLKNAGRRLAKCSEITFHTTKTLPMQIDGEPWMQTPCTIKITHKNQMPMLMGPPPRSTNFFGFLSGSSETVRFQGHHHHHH

human DGKζ = biological target: T2, human DGKζ (Homo sapiens, UniProt Q13574); assay: DGKζ LIPGLO assay (extruded liposome substrate), in vitro DGK inhibition; assay type: biochemical; conditions: liposome (LIPGLO) assay; read-out: DGKz LIPGLO IC50
T2 construct: TVMV protease cleavage site (C); Hexa-His (C); made in house; host or cells: Sf9 insect cells (baculovirus, Bac-to-Bac)
T2 sequence (Q13574 with tags, fused parts or gaps isoform Q13574-4): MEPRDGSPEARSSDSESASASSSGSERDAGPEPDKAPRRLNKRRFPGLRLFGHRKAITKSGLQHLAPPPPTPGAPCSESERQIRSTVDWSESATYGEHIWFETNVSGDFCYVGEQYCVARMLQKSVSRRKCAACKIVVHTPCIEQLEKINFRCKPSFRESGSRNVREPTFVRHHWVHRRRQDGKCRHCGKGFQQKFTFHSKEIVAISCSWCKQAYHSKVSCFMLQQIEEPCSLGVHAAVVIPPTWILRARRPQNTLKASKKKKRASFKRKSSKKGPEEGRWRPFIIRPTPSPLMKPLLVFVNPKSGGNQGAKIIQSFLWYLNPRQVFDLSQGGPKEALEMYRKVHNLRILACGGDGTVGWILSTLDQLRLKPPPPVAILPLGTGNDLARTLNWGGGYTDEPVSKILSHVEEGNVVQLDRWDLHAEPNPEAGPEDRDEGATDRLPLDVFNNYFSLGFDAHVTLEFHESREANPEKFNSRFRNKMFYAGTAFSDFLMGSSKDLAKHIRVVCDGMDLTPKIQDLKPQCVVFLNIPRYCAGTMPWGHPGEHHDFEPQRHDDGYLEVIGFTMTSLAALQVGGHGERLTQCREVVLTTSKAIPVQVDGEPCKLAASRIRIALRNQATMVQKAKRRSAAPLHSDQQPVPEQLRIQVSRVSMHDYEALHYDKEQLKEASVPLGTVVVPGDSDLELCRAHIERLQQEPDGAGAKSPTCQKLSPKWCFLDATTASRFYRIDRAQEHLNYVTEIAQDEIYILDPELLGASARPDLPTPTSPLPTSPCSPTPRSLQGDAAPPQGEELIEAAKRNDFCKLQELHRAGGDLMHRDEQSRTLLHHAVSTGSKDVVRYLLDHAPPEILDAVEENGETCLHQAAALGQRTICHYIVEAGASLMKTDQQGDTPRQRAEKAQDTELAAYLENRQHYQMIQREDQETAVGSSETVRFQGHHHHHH

naïve human CD8 T cells = assay: Human CD8 T cells IFN-γ assay; assay type: cell-based; conditions: normalized to 3 μM reference compound with anti-CD3 plus anti-CD28 as 100% activation, read-out: HuCD8 INFG Normalized EC50;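 further: Naïve human CD8 T cells stimulated with plate-bound anti-CD3 and soluble anti-CD28, IFN-γ in supernatant quantified by AlphaLISA and converted to pg/mL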

Row | Compound | IC50 (human DGKα) | IC50 (human DGKζ) | IC50 ([1]; Mus musculus, MC-38) | EC50 (Human venous whole blood; Homo sapiens, 24 h) | EC50 (naïve human CD8 T cells; Homo sapiens, T-cell, 20 h) | EC50 (naïve human CD8 T cells) | IC50 [1] | EC50 (Human venous whole blood)
1 | CC(c1ccc(F)cc1)N1C[C@H](C)N(c2cc(=O)n(C)c3ccc(C#N)nc23)C[C@H]1C (single isomer, unassigned) [Example 308] | 25 nM | 160 nM | 81 nM | 520 nM | – | 290 nM | – | –
2 | CC[C@@H]1CN(c2cc(=O)n(C)c3ccc(C#N)nc23)CCN1C(c1ccc(Cl)cc1)c1ccc(Cl)cc1 [Example 180, (R)-8-(4-(bis(4-chlorophenyl)methyl)-3-ethylpiperazin-1-yl)-5-methyl-6-oxo-5,6-dihydro-1,5-naphthyridine-2-carbonitrile] | 4100 nM | 1500 nM | 400 nM | 830 nM | 70 nM | – | – | –
3 | C[C@@H]1CN(c2cc(=O)n(C)c3ccc(C#N)nc23)[C@@H](C)CN1C(c1ccc(F)cc1)c1ccccn1 (single isomer, unassigned) [Example 197] | 200 nM | 3700 nM | 82 nM | 1100 nM | 35 nM | – | – | –
4 | C[C@@H]1CN(c2cc(=O)n(C)c3ccc(C#N)nc23)[C@@H](C)CN1C(c1ccc(Cl)cc1)c1ccc(Cl)cc1 [Example 25, 8-((2S,5R)-4-(bis(4-chlorophenyl)methyl)-2,5-dimethylpiperazin-1-yl)-5-methyl-6-oxo-5,6-dihydro-1,5-naphthyridine-2-carbonitrile] | 650 nM | 250 nM | 41 nM | 390 nM | 4.3 nM | – | – | –
5 | Cn1c(=O)cc(N2CCN(C(c3ccc(F)cc3)c3ccc(F)cc3)C(C(=O)OC3CC3)C2)c2nc(C#N)ccc21 (single isomer, unassigned) [Example 107, cyclopropyl 1-(bis(4-fluorophenyl)methyl)-4-(6-cyano-1-methyl-2-oxo-1,2-dihydro-1,5-naphthyridin-4-yl)piperazine-2-carboxylate] | 40000 nM | 200 nM | – | – | – | 27 nM | 750 nM | 11000 nM
6 | CC(C)[C@@H]1CN(c2cc(=O)n(C)c3ccc(C#N)nc23)CCN1C(c1ccc(Cl)cc1)c1ccc(Cl)cc1 [Example 167, (R)-8-(4-(bis(4-chlorophenyl)methyl)-3-isopropylpiperazin-1-yl)-5-methyl-6-oxo-5,6-dihydro-1,5-naphthyridine-2-carbonitrile] | 7700 nM | 58000 nM | 10000 nM | 20000 nM | 10000 nM | – | – | –

Now from value to compound, other results behind:

Row | IC50 (human DGKα) | IC50 (human DGKζ) | Compound | IC50 ([1]; Mus musculus, MC-38) | EC50 (Human venous whole blood; Homo sapiens, 24 h) | EC50 (naïve human CD8 T cells; Homo sapiens, T-cell, 20 h) | EC50 (naïve human CD8 T cells) | IC50 [1] | EC50 (Human venous whole blood)
7 | 1900 nM | 1400 nM | CC[C@@H]1CN(c2cc(=O)n(C)c3ccc(C#N)nc23)CCN1C(c1ccc(F)cc1)c1ccc(F)cc1 [Example 172, (R)-8-(4-(bis(4-fluorophenyl)methyl)-3-ethylpiperazin-1-yl)-5-methyl-6-oxo-5,6-dihydro-1,5-naphthyridine-2-carbonitrile] | 39 nM | 1300 nM | 36 nM | – | – | –
8 | 3000 nM | 480 nM | Cn1c(=O)cc(N2CCN(C(c3ccc(F)cc3)c3ccc(F)cc3)C(CO)C2)c2nc(C#N)ccc21 (single isomer, unassigned) [Example 1, 8-(4-(bis(4-fluorophenyl)methyl)-3-(hydroxymethyl)piperazin-1-yl)-5-methyl-6-oxo-5,6-dihydro-1,5-naphthyridine-2-carbonitrile] | – | – | – | 96 nM | 230 nM | 820 nM
9 | 47000 nM | 2000 nM | CC[C@H]1CN(c2cc(=O)n(C)c3ccc(C#N)nc23)CCN1C(c1ccc(F)cc1)c1ccc(F)cc1 [Example 128, (S)-8-(4-(bis(4-fluorophenyl)methyl)-3-ethylpiperazin-1-yl)-5-methyl-6-oxo-5,6-dihydro-1,5-naphthyridine-2-carbonitrile] | 940 nM | 20000 nM | 1400 nM | – | – | –
10 | 7200 nM | 2400 nM | Cn1c(=O)cc(N2CCN(C(c3ccc(F)cc3)c3ccc(F)cc3)C(C#N)C2)c2nc(C#N)ccc21 (single isomer, unassigned) [Example 45, 8-(4-(bis(4-fluorophenyl)methyl)-3-cyanopiperazin-1-yl)-5-methyl-6-oxo-5,6-dihydro-1,5-naphthyridine-2-carbonitrile] | – | – | – | 530 nM | 910 nM | 2300 nM
11 | 6700 nM | 240000 nM | Cn1c(=O)cc(N2CCN(C(c3ccc(F)cc3)c3ccc(F)cc3)C(C(C)(C)O)C2)c2nc(C#N)ccc21 (single isomer, unassigned) [Example 79, 8-(4-(bis(4-fluorophenyl)methyl)-3-(2-hydroxypropan-2-yl)piperazin-1-yl)-5-methyl-6-oxo-5,6-dihydro-1,5-naphthyridine-2-carbonitrile] | – | – | – | 10000 nM | 8000 nM | 10000 nM
12 | 240000 nM | 9400 nM | COC(=O)C1CN(c2cc(=O)n(C)c3ccc(C#N)nc23)CCN1C(c1ccc(F)cc1)c1ccc(F)cc1 (single isomer, unassigned) [Example 39, Methyl 1-(bis(4-fluorophenyl)methyl)-4-(6-cyano-1-methyl-2-oxo-1,2-dihydro-1,5-naphthyridin-4-yl)piperazine-2-carboxylate] | – | – | – | 220 nM | 1900 nM | 9700 nM
